Values of other authors in PMC12650809, “Evolving Therapeutic Landscape of ROS1-Positive Non-Small Cell Lung Cancer: An Updated Review” (Current Oncology, 2025).
Read-outs that look alike come from different tables or passages of the source. Marks after values point to notes of the source that are not given here.

Experiments:
ROS1-positive NSCLC [1] = tested on: ROS1-positive NSCLC
ROS1^L2086F = tested on: ROS1^L2086F; parameters: method as in PMID 38070596; conditions: for resistance or activity with L2086F: ATP-binding pocket; for resistance or sensitivity conferred by ROS1^L2086F: L2086F alone or in combination with G2032R or S1986F, preclinical models
ROS1^G2032R = tested on: ROS1^G2032R; parameters: method as in PMID 38070596; conditions: solvent-front substitution
ROS1-positive NSCLC [2] = conditions: for TKI-Naive ORR (%) / mPFS (Months): TKI-naïve patients; for IC-ORR (%): TKI-naïve patients evaluable for intracranial ORR
ROS1-positive NSCLC [3] = tested on: ROS1-positive NSCLC; parameters: method as in earlier work; conditions: WCLC 2025 Abstract 4540
ROS1-positive NSCLC [4] = tested on: ROS1-positive NSCLC; remark: listed apart in the source
ROS1-positive NSCLC [5] = tested on: ROS1-positive NSCLC; parameters: method as in doi:10.1200/JCO.2024.42.16_suppl.8519; conditions: 32 TKI-naïve patients
[6] = tested on: advanced ROS1-positive NSCLC; parameters: method as in PMID 31669155
ROS1-positive NSCLC [7] = tested on: ROS1-positive NSCLC; parameters: method as in PMID 35227966
[8] = tested on: advanced ROS1-positive NSCLC
[9] = 13 patients harboring ROS1^G2032R
[10] = previously treated with a ROS1 TKI, n = 113
[11] = previously treated with crizotinib
[12] = after at least one prior ROS1-targeted TKI
[13] = isolated intracranial progression on crizotinib, n = 18

Q: Which “Notable AEs: QT prolongation” value (ROS1-positive NSCLC [1]) does the source give for `C[C@@H](N)COc1ccc(-c2cnc3ccc(N[C@H](C)c4cccc(F)c4)nn23)cc1` [Taletrectinib, taletrectinib] here?
A: The value was 18%.

Q: What about the “Notable AEs: diarrhea” value (ROS1-positive NSCLC [1]) of the same compound?
A: The value was 61%.

Q: What about the “Notable AEs: dizziness” value (ROS1-positive NSCLC [1]) of the same compound?
A: Its value is 15%.

Q: And the “Notable AEs: increased AST/ALT” value (ROS1-positive NSCLC [1])?
A: Its value is 70%.

Q: What about the “Notable AEs: nausea” value (ROS1-positive NSCLC [1]) of the same compound?
A: Its value is 44%.

Q: What about the “Notable AEs: vomiting” value (ROS1-positive NSCLC [1]) of the same compound?
A: Its value is 41%.

Q: What about the “Main Grade ≥ 3 AEs: QT prolongation” value (ROS1-positive NSCLC [1]; grade ≥ 3) of the same compound?
A: The value was 3%.

Q: What about the “Main Grade ≥ 3 AEs: anemia” value (ROS1-positive NSCLC [1]; grade ≥ 3) of the same compound?
A: Its value is 3%.

Q: And the “Main Grade ≥ 3 AEs: diarrhea” value (ROS1-positive NSCLC [1]; grade ≥ 3)?
A: The value was 3%.

Q: What about the “Main Grade ≥ 3 AEs: increased AST/ALT” value (ROS1-positive NSCLC [1]; grade ≥ 3) of the same compound?
A: Its value is 9%.

Q: What about the “Main Grade ≥ 3 AEs: neutropenia” value (ROS1-positive NSCLC [1]; grade ≥ 3) of the same compound?
A: The value was 4%.

Q: And the “resistance or activity with L2086F” value (ROS1^L2086F)?
A: Its value is “cross-resistance”.

Q: What about the “resistance or sensitivity with ROS1^G2032R” value (ROS1^G2032R) of the same compound?
A: Its value is “some sensitivity”.

Q: And the “TKI-Naive ORR (%)” value (ROS1-positive NSCLC [2])?
A: The value was 88.8%.

Q: And the “mPFS (Months)” value (ROS1-positive NSCLC [2])?
A: The value was 45.6 Months.

Q: And the “IC-ORR (%)” value (ROS1-positive NSCLC [2])?
A: Its value is 76.5 ^e %.

Q: What about the “IC-ORR (%)” value (ROS1-positive NSCLC [3]; TKI-pretreated patients) of the same compound?
A: The value was 65.6%.

Q: What about the “TKI-Pretreated ORR (%)” value (ROS1-positive NSCLC [3]; TKI-pretreated patients) of the same compound?
A: Its value is 55.8%.

Q: And the “mPFS (Months)” value (ROS1-positive NSCLC [3]; TKI-pretreated patients)?
A: The value was 9.7 Months.

Q: And the “rate of treatment discontinuation due to toxicity” value (ROS1-positive NSCLC [4])?
A: The value was 6.5%.

Q: What about the objective response rate (ROS1-positive NSCLC [4]; [9]) of the same compound?
A: Its objective response rate is 61.5%.

Q: And the “patients with objective response (number)” value (ROS1-positive NSCLC [4]; [9])?
A: The value was 8.

Q: And the diarrhea (ROS1-positive NSCLC [4]; AEs, predominantly grade 1)?
A: Its diarrhea is 61%.

Q: And the nausea (ROS1-positive NSCLC [4]; AEs, predominantly grade 1)?
A: Its nausea is 44%.

Q: What about the transaminase elevation (ROS1-positive NSCLC [4]; AEs, predominantly grade 1) of the same compound?
A: Its transaminase elevation is 70%.

Q: And the “confirmed ORR” value (ROS1-positive NSCLC [4]; TKI-naïve patients, n = 160)?
A: The value was 88.8%.

Q: What about the “median DOR” value (ROS1-positive NSCLC [4]; TKI-naïve patients, n = 160) of the same compound?
A: The value was 44.2 months.

Q: And the “median PFS” value (ROS1-positive NSCLC [4]; TKI-naïve patients, n = 160)?
A: The value was 45.6 months.

Q: What about the “intracranial ORR” value (ROS1-positive NSCLC [4]; TKI-naïve, measurable BMs) of the same compound?
A: Its value is 76.5%.

Q: What about the “median intracranial DOR” value (ROS1-positive NSCLC [4]; TKI-naïve, measurable BMs) of the same compound?
A: The value was 14.7 months.

Q: What about the dizziness (ROS1-positive NSCLC [4]; neurological events) of the same compound?
A: The dizziness was 21%.

Q: And the dysgeusia (ROS1-positive NSCLC [4]; neurological events)?
A: Its dysgeusia is 15%.

Q: What about the “intracranial ORR” value (ROS1-positive NSCLC [4]; previously treated with a ROS1 TKI) of the same compound?
A: The value was 65.6%.

Q: What about the ORR (ROS1-positive NSCLC [4]; [10]) of the same compound?
A: Its ORR is 55.8%.

Q: And the “median DOR” value (ROS1-positive NSCLC [4]; [10])?
A: The value was 16.6 months.

Q: What about the “median PFS” value (ROS1-positive NSCLC [4]; [10]) of the same compound?
A: Its value is 9.7 months.

Q: What does the source list for `C[C@H]1Oc2cc(cnc2N)-c2c(nn(C)c2C#N)CN(C)C(=O)c2ccc(F)cc21` [Lorlatinib, lorlatinib]?
A: Notable AEs: cognitive effects (ROS1-positive NSCLC [1]): 27%; Notable AEs: dizziness (ROS1-positive NSCLC [1]): 12%; Notable AEs: hypercholesterolemia (ROS1-positive NSCLC [1]): 80%; Notable AEs: mood disorders (ROS1-positive NSCLC [1]): 16%; Notable AEs: weight gain (ROS1-positive NSCLC [1]): 23%; Discontinuation for AEs (%) (ROS1-positive NSCLC [1]; WCLC 2025 Abstract 4540): 1%; Main Grade ≥ 3 AEs: hypercholesterolemia (ROS1-positive NSCLC [1]; grade ≥ 3): 15%; Main Grade ≥ 3 AEs: hypertriglyceridemia (ROS1-positive NSCLC [1]; grade ≥ 3): 19%; Main Grade ≥ 3 AEs: weight gain (ROS1-positive NSCLC [1]; grade ≥ 3): 7%; resistance or sensitivity conferred by ROS1^L2086F (ROS1^L2086F): cross-resistance; ORR (ROS1-positive NSCLC [5]): 69%; median PFS (ROS1-positive NSCLC [5]): 35.8 months; resistance or sensitivity with ROS1^G2032R (ROS1^G2032R): high-level resistance; ORR ([6]; 21 TKI-naïve patients): 62%; median DOR ([6]; TKI-naïve patients): 25.3 months; median PFS ([6]; TKI-naïve patients): 21.0 months; intracranial ORR ([6]; TKI-naïve, BMs at baseline): 64%; efficacy against ROS1^G2032R mutation ([6]; patients with secondary resistance mutations to crizotinib): limited efficacy; treatment discontinuation due to AEs ([6]; pivotal trial): 1%; ORR [6, 11]: 35%; intracranial ORR [6, 11]: 50%; median DOR [6, 11]: 13.8 months; activity in patients harboring ROS1^K1991E and ROS1^S1986F mutations ([6]; secondary resistance mutations to crizotinib): showed activity in some patients; ORR if G2032R Mutation (%) (ROS1-positive NSCLC [3]; TKI-pretreated patients with G2032R): 0%; IC-ORR (%) (ROS1-positive NSCLC [3]; TKI-pretreated patients): 50%; mPFS (Months) (ROS1-positive NSCLC [3]; TKI-pretreated patients): 8.5 Months; ORR (ROS1-positive NSCLC [7]; 80 patients after at least one prior ROS1-targeted TKI): 45%; intracranial ORR (ROS1-positive NSCLC [7]; [12]): 72%; median OS (ROS1-positive NSCLC [7]; [12]): 19.6 months; median PFS (ROS1-positive NSCLC [7]; [12]): 7.1 months; median intracranial DOR (ROS1-positive NSCLC [7]; non-irradiated brain metastases): 20.6 months; treatment discontinuation due to AEs (ROS1-positive NSCLC [7]; real-world cohort): 13%

Q: With `COc1cc2nccc(Oc3ccc(NC(=O)C4(C(=O)Nc5ccc(F)cc5)CC4)cc3)c2cc1OC` [cabozantinib] as the compound, how does the “resistance or sensitivity conferred by ROS1^L2086F” value (ROS1^L2086F) read?
A: Its value is “potentially retaining sensitivity”.

Q: And the “resistance or activity with L2086F” value (ROS1^L2086F)?
A: Its value is “preclinical efficacy”.

Q: For `CN1CCN(c2ccc(C(=O)Nc3n[nH]c4ccc(Cc5cc(F)cc(F)c5)cc34)c(NC3CCOCC3)c2)CC1` [Entrectinib, entrectinib], which “resistance or sensitivity conferred by ROS1^L2086F” value (ROS1^L2086F) is on record?
A: The value was “cross-resistance”.

Q: What about the “resistance or sensitivity with ROS1^G2032R” value (ROS1^G2032R) of the same compound?
A: Its value is “high-level resistance”.

Q: And the “TKI-Naive ORR (%)” value (ROS1-positive NSCLC [2])?
A: Its value is 68%.

Q: What about the “mPFS (Months)” value (ROS1-positive NSCLC [2]) of the same compound?
A: Its value is 15.7 Months.

Q: And the “IC-ORR (%)” value (ROS1-positive NSCLC [2])?
A: Its value is 80 ^a %.

Q: And the ORR ([8]; 168 TKI-naïve patients)?
A: The ORR was 68%.

Q: What about the complete responses ([8]; 168 TKI-naïve patients) of the same compound?
A: The complete responses was 13%.

Q: And the “median DOR” value ([8]; 168 TKI-naïve patients)?
A: Its value is 20.5 months.

Q: And the “median OS” value ([8]; 168 TKI-naïve patients)?
A: Its value is 47.8 months.

Q: And the “median PFS” value ([8]; 168 TKI-naïve patients)?
A: Its value is 15.7 months.

Q: What about the “median intracranial DOR” value ([8]; baseline BMs) of the same compound?
A: The value was 12.9 months.

Q: What about the “intracranial ORR” value ([8]; baseline BMs with measurable disease) of the same compound?
A: Its value is 80%.

Q: And the “global ORR” value [8, 13]?
A: Its value is 11%.

Q: And the “intracranial ORR” value [8, 13]?
A: The value was 19%.

Q: And the “median PFS” value [8, 13]?
A: Its value is 4.7 months.
